Read-outs that look alike come from different tables or passages of the source.

Assay [1] addresses EGFR (mutated) 695-1022, T790M, C797S, L858R (Homo sapiens (Human), UniProt P00533, C797S/L858R/T790M). Briefly: Biochemical EGFR inhibition assay (poly-GT substrate phosphorylation, TR-FRET LANCE Ultra). As to the method:
(§1) Initially, the inhibitory effect of compounds according to the invention is measured in biochemical assays which measure the phosphorylation activity of EGFR enzyme forms on poly-GT substrate in the presence of different concentrations of ATP (5 μM and 100 μM final assay concentration).
(§2) The following enzyme forms of EGFR are representative examples that can be used in these assays at the given concentrations:
(§3) For the chosen highest assay concentration of 100 μM, 150 nL of compound solution is transferred from a 10 mM DMSO compound stock solution. A series of eleven fivefold dilutions per compound is transferred to the assay plate, compound dilutions are tested in duplicates. DMSO is added as backfill to a total volume of 150 nL. The assay runs on a fully automated robotic system.
(§4) 5 μL of EGFR enzyme form in assay buffer (50 mM HEPES pH 7.3, 10 mM MgCl2, 1 mM EGTA, 0.01% Tween 20, 2 mM DTT) are dispensed into columns 1-23, than 5 μL of ATP and ULight-poly-GT substrate (PerkinElmer; TRF0100-M) mix in assay buffer is added to all wells (final assay concentration of the ULight-poly-GT substrate 200 nM). Each of the different EGFR enzyme form assays is available at low ATP (final assay concentration 5 μM) and high ATP levels (final assay concentration 100 μM). After 90 minutes incubation at room temperature 5 μL EDTA (final assay concentration 50 mM) and LANCE Eu-anti-P-Tyr (PT66) antibody (PerkinElmer, AD0069) (final assay concentration 6 nM) mix are added to stop the reaction and start the binding of the antibody. […] Each plate contains 16 wells of a negative control (diluted DMSO instead of test compound; w EGFR enzyme form; column 23) and 16 wells of a positive control (diluted DMSO instead of test compound; w/o EGFR enzyme form; column 24). Negative and positive control values are used for normalization and IC50 values are calculated and analysed using a 4 parametric logistic model.
(§5) These biochemical EGFR enzyme form compound dose-response assays quantify the kinase activity via phosphorylation of a tagged poly-GT substrate. The results of the assay are provided as IC50 values.

The next assay deals with EGFR wt (Homo sapiens (Human), UniProt P00533). Described as above. As to the method:
as §1, §2, §3, §4, §5

For the next assay, the target named is EGFR del19 T790M C797S (Homo sapiens, UniProt P00533, C797S/T790M, form not given). Briefly: pEGFR assay: phosphorylation of EGFR at Tyr1068 in Ba/F3 cells (AlphaScreen Surefire). The assay is classed as cell-based. To be noted: 4 h. How it is done:
Transduced cells were selected using puromycin. Following selection, IL-3 was withdrawn and IL-3 independent cells cultured. p-EGFR Tyr1068 was determined using the AlphaScreen Surefire pEGF Receptor (Tyr1068) Assay (PerkinElmer, TGRERS). […] Subsequently, 60.000 cells/well in 60 μL were added. Cells were incubated with compound for 4 h at 37° C. […] The mixture was incubated at room temperature with shaking (700 rpm) for 20 min. After centrifugation, 4 μL of the lysate were transferred to Proxiplates. […] Plates were shaken for 1 min (1400 rpm) and incubated for 2 h at room temperature in the dark.

Assay [2] has as its system Ba/F3 cells driven by EGFR L858R. The experiment in a line: Ba/F3 proliferation assay (CellTiter-Glo viability). The assay is classed as cell-based, murine. To be noted: Mus musculus, BaF3, 72 h. As to the method:
(§6) Plasmids containing EGFR mutants were obtained from GeneScript. To generate EGFR-dependent Ba/F3 models, Ba/F3 cells were transduced with retroviruses containing vectors that harbor EGFR isoforms. Platinum-E cells (Cell Biolabs) were used for retrovirus packaging. Retrovirus was added to Ba/F3 cells. To ensure infection, 4 μg/mL polybrene was added and cells were spinfected. Infection efficiency was confirmed by measuring GFP-positive cells using a cell analyzer. Cells with an infection efficiency of 10% to 20% were further cultivated and puromycin selection with 1 μg/mL was initiated. As a control, parental Ba/F3 cells were used to show selection status. Selection was considered successful when parental Ba/F3 cells cultures died. To evaluate the transforming potential of EGFR mutations, the growth medium was no longer supplemented with IL-3. Ba/F3 cells harboring the empty vector were used as a control. A switch from IL-3 to EGF was performed for Ba/F3 cells with the wildtype EGFR known for its dependency on EGF ligand. Approximately ten days before conducting the experiments, puromycin was left out. For proliferation assays (data in table 13), Ba/F3 cells were seeded into 96-well plates at 5×10^3 cells/100 μL in growth media. Compounds were added by using a HP D3000 Digital Dispenser. All treatments were performed in technical triplicates. Treated cells were incubated for 72 h at 37° C. with 5% CO2. CellTiter-Glo® Luminescent Cell Viability Assay (Promega) was performed and chemoluminescence was measured by using the multilabel Plate Reader VICTOR X4. The raw data were imported into and analyzed with the Boehringer Ingelheim proprietary software MegaLab (curve fitting based on the program PRISM, GraphPad Inc.).

For assay [3], the system named is Ba/F3 cells driven by EGFR L858R T790M. The assay is described as above. In kind it is cell-based, murine. To be noted: Mus musculus, BaF3, 72 h. As to the method: as §6
The subject of assay [4] is Ba/F3 cells driven by EGFR del19 T790M C797S. The description is as above. To be noted: Mus musculus, BaF3, 72 h. The assay is classed as cell-based, murine. How it is done:
as §6

Assay [5] has as its system Ba/F3 cells driven by EGFR del19. Described as above. In kind it is cell-based, murine. To be noted: Mus musculus, read-out: IC50 EGFR del19. How it is done:
as §6

Assay [6] concerns Ba/F3 cells driven by EGFR wt. The description is as above. To be noted: Mus musculus, BaF3, 72 h. The assay is classed as cell-based, murine. As to the method:
as §6

Assay [7] relates to Ba/F3 cells driven by EGFR del19 C797S. Described as above. To be noted: Mus musculus, BaF3, 72 h. The assay is classed as cell-based, murine. How it is done: as §6
Assay [8] deals with Ba/F3 cells driven by EGFR L858R C797S. Described as above. To be noted: Mus musculus, BaF3, 72 h. The assay is classed as cell-based, murine. As to the method: as §6
In assay [9] the test system is Ba/F3 cells EGFR-indep. + IL-3. The description is as above. To be noted: Mus musculus, BaF3, 72 h. The assay is classed as cell-based, murine. As to the method: as §6
In assay [10] the test system is Ba/F3 cells driven by EGFR del19 T790M. Described as above. In kind it is cell-based, murine. To be noted: Mus musculus, BaF3, 72 h. As to the method: as §6
Assay [11] relates to Ba/F3 cells driven by EGFR L858R T790M C797S. The description is as above. The assay is classed as cell-based, murine. To be noted: Mus musculus, BaF3, 72 h. How it is done: as §6
In assay [12] the target is EGFR (d746-750 T790M C797S) (Homo sapiens (Human), UniProt P00533, C797S/DEL746-750/T790M). Briefly: Biochemical EGFR inhibition assay (poly-GT substrate phosphorylation, TR-FRET LANCE Ultra). To be noted: 5 μM ATP; read-out: Del_TM_CS (5 μM ATP). How it is done:
as §1, §2
Test compounds dissolved in DMSO are dispensed onto assay plates (Proxiplate 384 PLUS, white, PerkinElmer; 6008289) using an Access Labcyte Workstation with the Labcyte Echo 55x. […]
5 μL of EGFR enzyme form in assay buffer (50 mM HEPES pH 7.3, 10 mM MgCl2, 1 mM EGTA, 0.01% Tween 20, 2 mM DTT) are dispensed into columns 1-23, than 5 μL of ATP and ULight-poly-GT substrate (PerkinElmer; TRF0100-M) mix in assay buffer is added to all wells (final assay concentration of the ULight-poly-GT substrate 200 nM). […] After additional 60 minutes incubation at room temperature the signal is measured in a PerkinElmer Envision HTS Multilabel Reader using the TR-FRET LANCE Ultra specs of PerkinElmer (used wavelengths: excitation 320 nm, emission 1 665 nm, emission 2 615 nm). […] Negative and positive control values are used for normalization and IC50 values are calculated and analysed using a 4 parametric logistic model. […]

A further assay relates to EGFR M+ NSCLC patients. To be noted: EGFR M+ NSCLC patients treated in 1st line; cited from earlier work.
The test system of assay [13] is EGFR M+ T790M-positive patients. To be noted: 2nd line, previously treated with earlier generation EGFR TKI; cited from earlier work.
[14] abbreviates: 100 μM ATP, read-out: LR_TM_CS (100 μM ATP).
Where [15] appears, read: 100 μM ATP, read-out: wt (100 μM ATP).
The mark [16] stands for this setting: 5 μM ATP, read-out: LR_TM_CS (5 μM ATP).
Setting [17] is: 5 μM ATP, read-out: wt (5 μM ATP).

Sequence of EGFR (mutated) 695-1022, T790M, C797S, L858R (P00533 695-1022 T790M/C797S/L858R): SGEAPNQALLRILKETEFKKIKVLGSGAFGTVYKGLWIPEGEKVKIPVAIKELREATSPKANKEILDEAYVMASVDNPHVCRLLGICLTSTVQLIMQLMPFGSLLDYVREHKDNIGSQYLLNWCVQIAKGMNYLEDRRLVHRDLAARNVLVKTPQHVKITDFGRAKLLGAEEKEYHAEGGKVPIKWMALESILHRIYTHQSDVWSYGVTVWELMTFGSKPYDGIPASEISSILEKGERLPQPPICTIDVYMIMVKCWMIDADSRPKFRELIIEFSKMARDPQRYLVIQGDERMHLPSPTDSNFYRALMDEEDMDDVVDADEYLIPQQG
Sequence of EGFR wt (P00533 25-1210): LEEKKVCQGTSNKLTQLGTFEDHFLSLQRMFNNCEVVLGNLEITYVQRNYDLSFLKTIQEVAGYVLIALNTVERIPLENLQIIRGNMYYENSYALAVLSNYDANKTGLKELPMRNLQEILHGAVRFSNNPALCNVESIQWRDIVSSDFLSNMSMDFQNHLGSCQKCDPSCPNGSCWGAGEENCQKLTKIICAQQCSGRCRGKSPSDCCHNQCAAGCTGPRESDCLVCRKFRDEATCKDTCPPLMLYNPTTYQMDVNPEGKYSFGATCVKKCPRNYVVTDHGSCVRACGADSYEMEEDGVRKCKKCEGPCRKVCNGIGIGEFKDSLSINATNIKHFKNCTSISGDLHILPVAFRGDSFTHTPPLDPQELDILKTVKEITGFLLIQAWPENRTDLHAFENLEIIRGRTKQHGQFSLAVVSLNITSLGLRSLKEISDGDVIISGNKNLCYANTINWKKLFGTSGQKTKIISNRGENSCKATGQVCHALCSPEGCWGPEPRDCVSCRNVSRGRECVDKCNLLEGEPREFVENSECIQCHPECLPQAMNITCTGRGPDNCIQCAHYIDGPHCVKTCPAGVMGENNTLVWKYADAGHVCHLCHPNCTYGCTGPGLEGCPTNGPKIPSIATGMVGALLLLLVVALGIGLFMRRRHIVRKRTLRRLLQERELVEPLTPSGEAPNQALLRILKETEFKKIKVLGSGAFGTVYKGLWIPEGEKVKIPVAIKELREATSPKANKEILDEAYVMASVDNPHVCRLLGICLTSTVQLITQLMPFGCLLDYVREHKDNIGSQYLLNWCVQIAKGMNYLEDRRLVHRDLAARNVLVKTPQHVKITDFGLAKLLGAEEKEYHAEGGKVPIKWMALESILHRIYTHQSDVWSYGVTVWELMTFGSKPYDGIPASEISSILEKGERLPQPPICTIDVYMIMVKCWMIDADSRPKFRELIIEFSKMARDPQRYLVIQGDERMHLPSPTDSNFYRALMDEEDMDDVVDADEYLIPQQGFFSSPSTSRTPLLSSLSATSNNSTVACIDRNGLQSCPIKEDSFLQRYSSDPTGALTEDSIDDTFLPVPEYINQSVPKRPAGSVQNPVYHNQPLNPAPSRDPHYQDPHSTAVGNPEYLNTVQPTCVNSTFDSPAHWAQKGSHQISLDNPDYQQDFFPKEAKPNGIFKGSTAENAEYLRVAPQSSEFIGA
Sequence of EGFR del19 T790M C797S (P00533 25-1210 T790M/C797S limits assumed, form open): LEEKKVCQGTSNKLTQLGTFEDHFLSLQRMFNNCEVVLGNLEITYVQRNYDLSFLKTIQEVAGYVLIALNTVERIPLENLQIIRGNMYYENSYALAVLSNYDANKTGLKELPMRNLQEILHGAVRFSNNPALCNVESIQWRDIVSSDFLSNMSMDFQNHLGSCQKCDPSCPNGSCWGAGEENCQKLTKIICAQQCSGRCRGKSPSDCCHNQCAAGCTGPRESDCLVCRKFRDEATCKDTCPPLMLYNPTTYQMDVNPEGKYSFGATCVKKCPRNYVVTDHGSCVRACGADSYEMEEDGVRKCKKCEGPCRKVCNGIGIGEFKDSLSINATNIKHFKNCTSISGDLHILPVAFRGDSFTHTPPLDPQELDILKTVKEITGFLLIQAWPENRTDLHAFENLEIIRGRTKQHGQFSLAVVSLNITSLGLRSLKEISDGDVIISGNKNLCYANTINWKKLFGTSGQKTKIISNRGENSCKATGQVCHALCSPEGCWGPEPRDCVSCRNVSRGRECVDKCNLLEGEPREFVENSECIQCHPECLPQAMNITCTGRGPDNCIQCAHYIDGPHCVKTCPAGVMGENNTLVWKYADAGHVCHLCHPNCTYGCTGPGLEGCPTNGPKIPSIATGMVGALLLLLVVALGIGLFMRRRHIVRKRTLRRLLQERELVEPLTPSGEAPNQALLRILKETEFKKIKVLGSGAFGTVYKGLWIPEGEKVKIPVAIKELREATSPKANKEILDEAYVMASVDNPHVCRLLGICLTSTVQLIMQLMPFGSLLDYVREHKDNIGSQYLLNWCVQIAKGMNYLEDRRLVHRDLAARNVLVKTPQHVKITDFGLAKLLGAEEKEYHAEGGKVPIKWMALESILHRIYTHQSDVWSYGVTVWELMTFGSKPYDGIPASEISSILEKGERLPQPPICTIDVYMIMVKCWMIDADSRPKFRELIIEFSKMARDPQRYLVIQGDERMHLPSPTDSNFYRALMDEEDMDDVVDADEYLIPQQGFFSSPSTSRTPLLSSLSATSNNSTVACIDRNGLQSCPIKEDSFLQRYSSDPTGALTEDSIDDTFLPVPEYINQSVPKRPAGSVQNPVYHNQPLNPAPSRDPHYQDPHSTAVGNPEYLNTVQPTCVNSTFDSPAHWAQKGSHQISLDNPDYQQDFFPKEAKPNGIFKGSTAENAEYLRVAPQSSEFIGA
Sequence of EGFR (d746-750 T790M C797S) (P00533 other isoform, or with tags, fused parts or gaps T790M/C797S/del 1-694/del 746-750 limits assumed): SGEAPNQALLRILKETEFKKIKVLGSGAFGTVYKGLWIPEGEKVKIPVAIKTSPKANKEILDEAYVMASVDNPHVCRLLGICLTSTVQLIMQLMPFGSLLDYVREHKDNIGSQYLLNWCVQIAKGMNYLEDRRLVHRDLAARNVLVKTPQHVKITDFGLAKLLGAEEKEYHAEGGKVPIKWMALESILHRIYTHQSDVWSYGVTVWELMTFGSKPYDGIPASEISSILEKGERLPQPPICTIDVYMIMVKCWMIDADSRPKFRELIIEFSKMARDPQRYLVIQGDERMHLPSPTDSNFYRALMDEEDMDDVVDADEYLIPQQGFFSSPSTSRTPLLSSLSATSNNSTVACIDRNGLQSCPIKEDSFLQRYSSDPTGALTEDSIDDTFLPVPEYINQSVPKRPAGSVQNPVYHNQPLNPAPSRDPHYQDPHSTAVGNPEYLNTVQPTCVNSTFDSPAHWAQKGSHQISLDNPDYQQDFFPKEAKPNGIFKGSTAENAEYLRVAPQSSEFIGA

For the compound `Cc1cc2cc(n1)-c1cnn(C)c1OCCC[C@@H](C)CN1/C(=N/C2=O)Nc2ccccc21` [Compound I-003], the values for the IC50 (in [1] (setting [14]); at EGFR wt (setting [15]); against EGFR del19 T790M C797S) were 3 nM, 900 nM and 0.8 nM, respectively.
The like results for `Cc1cc2cc(n1)-c1cnn(C)c1OCCC[C@@H](C)CN1/C(=N/C2=O)Nc2ccc(Br)cc21` [Compound I-005] were, in that order, 16 nM, more than 100000 nM and 4 nM.
With `Cc1cc2cc(n1)-c1cnn(C)c1OCCC[C@@H](C)CN1/C(=N/C2=O)Nc2ccc(CN3CCN(C)CC3)cc21` [Compound I-021], the IC50 in [2] stood at 7 nM; in [3], 0.9 nM; in [4], 0.2 nM; in assay [5] (BaF3, viability, 72 h), 1 nM; in assay [6], 190 nM; in [7], 0.5 nM. The IC50 in assay [8] worked out at 4 nM; in [9], 1100 nM; in assay [10], 0.3 nM; in assay [11], 0.4 nM.
`Cn1ncc2c1OCCCCCN1/C(=N/C(=O)c3cc(F)nc-2c3)Nc2ccccc21` [Compound I-037]: the IC50 was 0.2 nM in assay [12]; 0.3 nM in assay [1] (setting [16]); 3 nM in assay [1] (setting [14]); 13 nM at EGFR wt (setting [17]); more than 100000 nM on EGFR wt (setting [15]); 1.2 nM on EGFR del19 T790M C797S.
As for `C[C@@H]1CCCOc2ccccc2-c2cc(ccn2)C(=O)N=C2Nc3ccccc3N2C1` [Compound I-046], the IC50 in [12] is 1.3 nM; in assay [1] (setting [16]), 1.8 nM; in assay [1] (setting [14]), 16 nM; at EGFR wt (setting [17]) it was 18 nM; on EGFR wt (setting [15]), more than 100000 nM; against EGFR del19 T790M C797S, 4.1 nM.
`CC(=O)N1CCCCC(n2/c(=N/C(=O)c3ccnc(C)c3)[nH]c3cccc(Cl)c32)C1` (centres unmarked) [Exp. WO 2014/121942, reference compound]: the IC50 in [4] is 770 nM; in assay [6], 2800 nM; in [9], 3500 nM; in assay [11], 2200 nM.
Turning to `COc1cc2ncnc(Nc3ccc(F)c(Cl)c3)c2cc1NC(=O)/C=C/CN1CCCCC1` [dacomitinib], the IC50 was 0.03 nM in assay [2]; 0.01 nM in [5] (BaF3, viability, 72 h); 0.64 nM in assay [6]; 1.6 nM in assay [7]; 6.9 nM in assay [8].
On to `C#Cc1cccc(Nc2ncnc3cc(OCCOC)c(OCCOC)cc23)c1` [erlotinib], for which the objective response rate with EGFR M+ NSCLC patients was 60-85%.
On to `Cc1cc(C(=O)Nc2nc3cccc(Cl)c3n2[C@@H]2CCCCN(C(=O)/C=C/CN(C)C)C2)ccn1` [nazartinib], for which the IC50 in assay [2] is 5.1 nM; in assay [5] (BaF3, viability, 72 h), 1.1 nM; in [9], more than 5000 nM.
As for `C=CC(=O)Nc1cc(Nc2nccc(-c3cn(C)c4ccccc34)n2)c(OC)cc1N(C)CCN(C)C` [osimertinib], the IC50 in assay [5] (BaF3, 72 h) was found to be 0.5 nM. The objective response rate in the assay with EGFR M+ NSCLC patients was 60-85%. In addition, the “patients that respond to treatment” value in assay [13] is recorded as “Approximately 70%”.

The values above are taken from US12522615B2, “Macrocyclic compounds and derivatives as EGFR inhibitors” (Boehringer Ingelheim International GmbH, priority 2019, dated 2026).
